Biological target: T1, cathepsin B (CTSB) (Homo sapiens, UniProt P07858)
T1 construct: endogenous in cells; host or cells: HEK293T
Test: Mapping and competition of FFF probe-modified peptide on cathepsin B (CTSB)
Format: binding
Settings: active-site proximal peptide
Description: Preparation and analysis was adapted from methods previously reported. In brief, for global mapping of fragment probe-modified peptides, separate 10 cm dishes of cells were treated with probes (200-250 μM) in 3.0 mL of DMEM (serum-free) and (if applicable) competitor ligands, proteomes harvested and subjected to click chemistry conditions with either light or heavy isotopically labeled biotin-TEV-azide (10 μL of 5 mM stocks in DMSO, final concentration=100 μM), TCEP, ligand and CuSO4 as detailed above. The samples were allowed to react for 1 h at which point the samples were centrifuged (16,000 g, 5 min, 4° C.). The resulting pellets were sonicated in ice-cold methanol (500 μL) and the resuspended light- and heavy-labeled samples were then combined and centrifuged (16,000 g, 5 min, 4° C.). The pellets were then solubilized in PBS containing 1.2% SDS (1 mL) with sonication and heating (5 min, 95° C.). Samples were transferred to falcon tubes containing DPBS (5 mL), to which a 100 μL of streptavidin-agarose beads slurry was added. […]
The resulting probe-modified peptides were collected for MS analysis, which was performed as described above with differences in the salt bumps applied in the chromatographic gradients which in this case were 0%, 30%, 60%, 90% and 100% NH4OAc (500 μM). […] The isoTOP ratios for probe labeled peptides were quantified using the in-house software CIMAGE. […]

probe-modified peptide in CTSB: aa 315-332
SMILES: C#CCCC1(CCC(=O)Nc2ccc(C3CCNCC3)cc2)N=N1 [probe 9, 3-(3-(But-3-yn-1-yl)-3H-diazirin-3-yl)-N-(4-(piperidin-4-yl)phenyl)propanamide]

— patent publication US11535597B2, “Photoreactive ligands and uses thereof” (The Scripps Research Institute, priority 2017, dated 2022)
